According to patent publication US9067894B1, “Compound, composition, and method of activating GIRK potassium channel and use of same for treating conditions of interest” (Vanderbilt University, priority 2013, dated 2015):

Key:
[1] = target: T1, Leukotriene (Homo sapiens, UniProt Q9Y271); assay: Radioligand displacement (Ricerca); format: binding
T1 construct: Ricerca (contract laboratory that ran the panel)

[2] = target: T2, Histamine H2 (Homo sapiens, UniProt P25021); assay: Radioligand displacement (Ricerca); format: binding
T2 construct: Ricerca (contract laboratory that ran the panel)

[3] = target: T3, GIRK1/4 (Homo sapiens, UniProt P48544+P48549); assay: Thallium flux assay, HEK-293 cells expressing GIRK1/4; format: cell-based; conditions: cell line GIRK1-4; average ± SEM
T3 construct: expressed in transfected cells; host or cells: HEK-293
T3 sequence (P48549 1-501): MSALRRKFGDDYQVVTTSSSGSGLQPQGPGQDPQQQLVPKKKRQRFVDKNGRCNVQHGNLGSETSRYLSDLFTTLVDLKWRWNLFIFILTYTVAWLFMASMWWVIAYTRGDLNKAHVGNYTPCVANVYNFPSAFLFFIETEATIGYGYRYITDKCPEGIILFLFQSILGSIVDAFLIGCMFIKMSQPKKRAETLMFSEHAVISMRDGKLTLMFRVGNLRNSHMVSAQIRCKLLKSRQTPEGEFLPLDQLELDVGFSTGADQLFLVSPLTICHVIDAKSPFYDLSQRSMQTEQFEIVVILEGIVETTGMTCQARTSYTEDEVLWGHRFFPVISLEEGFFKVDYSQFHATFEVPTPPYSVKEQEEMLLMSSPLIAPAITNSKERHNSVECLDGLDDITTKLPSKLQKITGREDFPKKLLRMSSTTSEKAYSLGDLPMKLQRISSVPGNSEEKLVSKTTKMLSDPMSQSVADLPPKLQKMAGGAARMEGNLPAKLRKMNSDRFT
T3 sequence (P48544 1-419): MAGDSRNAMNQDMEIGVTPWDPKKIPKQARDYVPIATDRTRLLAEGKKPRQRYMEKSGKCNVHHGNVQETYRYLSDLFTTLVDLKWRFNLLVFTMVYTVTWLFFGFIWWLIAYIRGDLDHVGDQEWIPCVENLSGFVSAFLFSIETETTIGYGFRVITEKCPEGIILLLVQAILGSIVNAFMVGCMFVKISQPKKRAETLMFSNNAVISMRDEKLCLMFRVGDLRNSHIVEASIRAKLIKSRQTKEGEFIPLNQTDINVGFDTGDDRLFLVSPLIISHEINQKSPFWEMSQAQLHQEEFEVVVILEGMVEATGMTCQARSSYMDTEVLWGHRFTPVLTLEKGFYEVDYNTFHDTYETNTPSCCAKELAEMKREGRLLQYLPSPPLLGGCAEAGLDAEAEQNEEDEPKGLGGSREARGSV
From the text: (§1) Cell Line Construction and Cell Culture. HEK-293 cells co-expressing human GIRK1/2 and rat mGlu8 were generated as previously described (Niswender et al., 2008). A HEK-293 cell line (ATCC, Manassas, Va.) expressing human GIRK1 and human GIRK2 was constructed by transfecting HEK-293 cells with GIRK1 and GIRK2 (Origene, Rockville, Md.) cloned into the pBudCE4.1 vector (Life Technologies, Carlsbad, Calif.) using FuGene 6 (Promega, Madison, Wis.) transfection reagent. Unless otherwise noted, other ion channel-expressing cells were prepared by transfecting HEK-293 cells with individual or combinations of subunits: GIRK1, pCMV6-A-BSD; GIRK2, pCMV6-A-puro; GIRK3, pCMV6-A-hygro; GIRK4, pCMV6-A-AC; Kv7.4, pIRESneo3. The Kir2.1 and hERG-expressing cell lines were made by transfecting T-REx-293 cells (Life Technologies, Carlsbad, Calif.) with Kir2.1 and Kv11.1, respectively, cloned into pcDNA5TO. Monoclonal cell lines were produced by limiting-dilution cloning of antibiotic-resistant cells and functional selection using the thallium flux assay described below. Unless otherwise noted, cells were maintained in Minimal Essential Medium, Alpha Medium (Mediatech, Manassas, Va.) supplemented with 10% fetal bovine serum (Sigma-Aldrich, Saint Louis, Mo.) and GlutaGro (Mediatech, Manassas, Va.), referred to henceforth as cell culture medium. […]

[4] = target: T4, Melatonin MT1 (Homo sapiens, UniProt P48039); assay: Radioligand displacement (Ricerca); format: binding
T4 construct: Ricerca (contract laboratory that ran the panel)

[5] = target: T5, Transporter, NET (Homo sapiens, UniProt P23975); assay: Radioligand displacement (Ricerca); format: binding
T5 construct: Ricerca (contract panel)

[6] = target: T6, Kir2.1 (Homo sapiens, UniProt P63252); assay: Thallium flux assay, Kir2.1-expressing cells; format: cell-based
T6 construct: expressed in transfected cells; host or cells: T-REx-293
From the text: as §1

[7] = target: T7, Endothelin ETA (Homo sapiens, UniProt P25101); assay: Radioligand displacement (Ricerca); format: binding
T7 construct: Ricerca
T7 sequence (P25101 21-427): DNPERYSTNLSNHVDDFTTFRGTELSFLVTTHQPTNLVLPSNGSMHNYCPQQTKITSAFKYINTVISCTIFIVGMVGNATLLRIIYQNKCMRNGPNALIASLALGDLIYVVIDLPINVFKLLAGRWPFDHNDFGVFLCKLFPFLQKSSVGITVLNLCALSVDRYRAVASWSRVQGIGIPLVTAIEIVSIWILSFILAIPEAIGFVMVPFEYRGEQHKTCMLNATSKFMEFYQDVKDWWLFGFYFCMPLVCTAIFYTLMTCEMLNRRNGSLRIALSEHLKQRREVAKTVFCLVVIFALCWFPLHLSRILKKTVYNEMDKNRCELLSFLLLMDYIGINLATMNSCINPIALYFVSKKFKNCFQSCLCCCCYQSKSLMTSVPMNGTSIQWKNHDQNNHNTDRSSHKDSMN

T6 sequence (P63252 whole entry): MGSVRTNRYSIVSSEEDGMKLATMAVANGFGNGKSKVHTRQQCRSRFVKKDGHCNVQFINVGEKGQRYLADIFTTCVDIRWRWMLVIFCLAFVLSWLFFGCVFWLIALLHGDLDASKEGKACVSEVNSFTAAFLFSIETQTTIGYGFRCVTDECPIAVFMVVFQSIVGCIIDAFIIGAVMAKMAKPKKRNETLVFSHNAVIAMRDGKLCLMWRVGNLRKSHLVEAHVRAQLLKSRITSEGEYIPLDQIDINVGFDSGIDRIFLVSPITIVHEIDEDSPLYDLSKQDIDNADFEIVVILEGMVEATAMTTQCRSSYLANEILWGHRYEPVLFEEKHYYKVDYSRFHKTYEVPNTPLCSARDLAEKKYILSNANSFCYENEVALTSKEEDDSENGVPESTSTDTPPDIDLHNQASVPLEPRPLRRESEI
T4 sequence (P48039 whole entry): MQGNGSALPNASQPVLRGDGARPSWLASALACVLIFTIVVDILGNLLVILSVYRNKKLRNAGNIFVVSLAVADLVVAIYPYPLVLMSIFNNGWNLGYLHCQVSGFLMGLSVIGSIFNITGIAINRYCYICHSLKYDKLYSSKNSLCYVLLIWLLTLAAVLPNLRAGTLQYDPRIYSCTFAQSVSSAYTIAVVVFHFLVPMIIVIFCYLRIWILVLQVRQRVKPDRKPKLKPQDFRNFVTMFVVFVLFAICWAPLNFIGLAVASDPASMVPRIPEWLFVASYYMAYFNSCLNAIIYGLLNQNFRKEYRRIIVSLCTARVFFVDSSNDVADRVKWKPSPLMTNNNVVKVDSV
T2 sequence (P25021 whole entry): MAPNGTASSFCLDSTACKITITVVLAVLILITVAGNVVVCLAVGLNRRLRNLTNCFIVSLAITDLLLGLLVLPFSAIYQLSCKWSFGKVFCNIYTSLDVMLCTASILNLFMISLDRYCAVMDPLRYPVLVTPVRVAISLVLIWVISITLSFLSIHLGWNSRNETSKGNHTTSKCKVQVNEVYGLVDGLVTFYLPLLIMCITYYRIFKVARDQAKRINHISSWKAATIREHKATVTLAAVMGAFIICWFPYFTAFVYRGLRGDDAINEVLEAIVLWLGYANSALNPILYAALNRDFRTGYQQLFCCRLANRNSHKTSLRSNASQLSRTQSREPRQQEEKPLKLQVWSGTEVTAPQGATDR
T5 sequence (P23975 whole entry): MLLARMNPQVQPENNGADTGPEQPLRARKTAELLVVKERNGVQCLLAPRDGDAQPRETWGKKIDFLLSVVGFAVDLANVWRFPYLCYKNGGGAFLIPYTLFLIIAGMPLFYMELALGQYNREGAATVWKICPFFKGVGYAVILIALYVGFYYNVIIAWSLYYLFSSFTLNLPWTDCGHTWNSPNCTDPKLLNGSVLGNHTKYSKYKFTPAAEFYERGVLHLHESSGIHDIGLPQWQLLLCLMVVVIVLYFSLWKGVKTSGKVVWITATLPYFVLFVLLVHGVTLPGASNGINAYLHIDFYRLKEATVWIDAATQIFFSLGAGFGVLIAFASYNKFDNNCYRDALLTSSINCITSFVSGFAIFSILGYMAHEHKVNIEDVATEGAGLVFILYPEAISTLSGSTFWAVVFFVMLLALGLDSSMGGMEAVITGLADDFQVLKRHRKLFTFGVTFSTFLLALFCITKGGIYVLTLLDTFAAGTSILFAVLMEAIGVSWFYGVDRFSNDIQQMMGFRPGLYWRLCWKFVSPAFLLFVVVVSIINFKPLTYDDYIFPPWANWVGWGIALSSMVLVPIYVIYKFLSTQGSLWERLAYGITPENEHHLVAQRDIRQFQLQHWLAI
T1 sequence (Q9Y271 whole entry): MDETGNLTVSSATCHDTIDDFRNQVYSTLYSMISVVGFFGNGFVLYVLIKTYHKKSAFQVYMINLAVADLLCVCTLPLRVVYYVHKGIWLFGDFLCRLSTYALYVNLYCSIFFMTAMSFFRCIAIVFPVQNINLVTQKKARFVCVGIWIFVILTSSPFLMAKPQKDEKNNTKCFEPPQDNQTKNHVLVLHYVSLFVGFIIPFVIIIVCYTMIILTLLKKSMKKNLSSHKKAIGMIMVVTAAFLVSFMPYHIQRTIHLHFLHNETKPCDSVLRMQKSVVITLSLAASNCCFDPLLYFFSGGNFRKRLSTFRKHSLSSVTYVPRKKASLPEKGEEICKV

Q: `Cc1cc(NC(=O)Nc2ccc(F)c(F)c2)n(-c2ccccc2)n1` [VU0456810, 1-(3,4-difluorophenyl)-3-(3-methyl-1-phenyl-1H-pyrazol-5-yl)urea] was tested. Which inhibition at 10 µM [1] did it give?
A: 4%

Q: What about the inhibition at 10 µM [2] of the same compound?
A: -2%

Q: And the EC50 [3]?
A: 887 ± 266 nM

Q: What about the “EC50 Thallium Flux” value [3] of the same compound?
A: able to activate

Q: And the inhibition at 10 µM [4]?
A: 11%

Q: And the inhibition at 10 µM [5]?
A: 15%

Q: What about the Potency [6] of the same compound?
A: Inactive

Q: What about the inhibition at 10 µM [7] of the same compound?
A: 1%
